Data published in US12606572B2, “Substituted heterocycles and uses thereof” (Kumquat Biosciences Inc., priority 2023, dated 2026).

What was measured:
KRAS G12S = biological target: T1, KRAS G12S (Homo sapiens, UniProt P01116, G12S); test: HTRF assay, interaction of GST-tagged K-Ras with His-tagged hSOS1 (KRAS G12S); assay type: biochemical; settings: <500 nM, read-out: Inhibition of KRAS G12S (IC50)
T1 construct: made in house; host or cells: E. coli BL21 (DE3)
From the text: This assay can be also used to assess a selective inhibition or reduction of signaling output of a mutant Ras protein relative to a wildtype, or relative to a different mutant Ras protein. For example, the equilibrium interaction of wildtype KRAS or K-Ras mutant (e.g., wildtype or a mutant thereof) with SOS1 (e.g., hSOS1) can be assessed as a proxy or an indication for the ability of a subject compound to bind and inhibit Ras protein. The HTRF assay detects from (i) a fluorescence resonance energy transfer (FRET) donor (e.g., antiGST-Europium) that is bound to GST-tagged K-Ras mutant to (ii) a FRET acceptor (e.g., anti-6His-XL665) bound to a His-tagged hSOS1.
The assay buffer can contain ˜5 mM HEPES pH 7.4, ˜150 mM NaCl, ˜1 mM DTT, 0.05% BSA and 0.0025% (v/v) Igepal. A Ras working solution is prepared in an assay buffer containing typically a suitable amount of the protein construct (e.g., GST-tagged K-Ras mutant) and the FRET donor (e.g., antiGST-Eu(K) from Cisbio, France). A SOS1 working solution is prepared in an assay buffer containing suitable amount of the protein construct (e.g., His-hSOS1) and the FRET acceptor (e.g., anti-6His-XL665 from Cisbio, France). A suitable amount of the protein construct will depend on the range of activity or range of IC50 values being detected or under investigation. For detecting an IC50 within a range of 500 nM, the protein constructs of the same range of molarity can be utilized.
A fixed volume of DMSO with or without test compound is transferred into a 384-well plate. Ras working solution is added to all wells of the test plate. SOS1 working solution is added to all wells except for those that are subsequently filled with inhibitor control solution. Upon incubation for about 10 minutes or longer, the fluorescence is measured with a M1000Pro plate reader (Tecan) using HTRF detection (excitation 337 nm, emission 1: 620 nm, emission 2: 665 nm). Compounds are tested in duplicate at different concentrations (for example, 10 μM, 2.5 μM, 0.63 μM, 0.16 μM, 0.04 μM, 0.01 μM test compound). The ratiometric data (i.e., emission 2 divided by emission 1) is used to calculate IC50 values against Ras using GraphPad Prism (GraphPad software). Signaling output measured in terms of IC50 values can be obtained and a ratio of IC50 against one mutant relative to another mutant can be calculated. For instance, a selective reduction of K-Ras G12S signaling output can be evidenced by a ratio greater than one. In particular, a selective reduction of K-Ras G12S signaling relative to K-Ras WT signaling is evidenced if the ratio of IC50 (against K-Ras WT) to IC50 (against K-Ras G12S) is greater than 1.

KRAS WT = biological target: T2, KRAS WT (Homo sapiens, UniProt P01116); test: HTRF assay, interaction of GST-tagged K-Ras with His-tagged hSOS1 (KRAS wildtype); assay type: biochemical; settings: <500 nM, read-out: Inhibition of KRAS WT (IC50)
T2 construct: made in house; host or cells: E. coli BL21 (DE3)
Outline: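 GST-K-Ras (G12S or WT) with anti-GST-Eu donor mixed with His-hSOS1 and anti-6His-XL665 acceptor in ~5 mM HEPES pH 7.4, 150 mM NaCl, 1 mM DTT, 0.05% BSA, 0.0025% Igepal. After ~10 min or longer, HTRF 665/620 nm ratio read.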

T1 sequence (P01116 1-188 isoform P01116-2 G12S): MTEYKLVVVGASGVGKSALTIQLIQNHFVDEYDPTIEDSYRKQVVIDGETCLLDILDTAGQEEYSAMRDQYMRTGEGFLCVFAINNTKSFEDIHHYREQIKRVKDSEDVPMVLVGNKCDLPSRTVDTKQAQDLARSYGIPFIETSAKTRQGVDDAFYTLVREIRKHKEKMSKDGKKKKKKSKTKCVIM
T2 sequence (P01116 1-188 isoform P01116-2): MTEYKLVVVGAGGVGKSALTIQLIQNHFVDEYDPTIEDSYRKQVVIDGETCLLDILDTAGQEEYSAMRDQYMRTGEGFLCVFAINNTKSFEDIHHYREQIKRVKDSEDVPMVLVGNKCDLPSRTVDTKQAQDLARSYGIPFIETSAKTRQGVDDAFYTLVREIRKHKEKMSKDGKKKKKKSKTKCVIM

**Q.** For Cc1cn(C(=O)N2CC[C@@H](N3C[C@H](C)Oc4nc(-c5cc(N)c(F)c(C)c5C(F)(F)F)c(F)c5nc(OC[C@@]67CCCN6C[C@H](F)C7)nc3c45)[C@H]2C)c(C)n1 [Compound 430, ((2R,3R)-3-((S)-5-(5-amino-4-fluoro-3-methyl-2-(trifluoromethyl)phenyl)-4-fluoro-2-(((2R,7aS)-2-fluorotetrahydro-1H-pyrrolizin-7a(5H)-yl)methoxy)-8-methyl-8,9-dihydro-10H-7-oxa-1,3,6,10-tetraazacyclohepta [de]naphthalen-10-yl)-2-methylpyrrolidin-1-yl)(2,4-dimethyl-1H-imidazol-1-yl)methanone], which IC50 (KRAS G12S) is on record?
**A.** < 500 nM

**Q.** What about the IC50 (KRAS WT) of the same molecule?
**A.** < 500 nM

**Q.** Which results are given for C[C@@H]1CCOc2c(Cl)c(-c3ccc(F)c4sc(N)c(C#N)c34)c(F)c3nc(OC[C@@]45CCCN4C[C@H](F)C5)nc(c23)N1C[C@@H]1CN(C(=O)n2ccnc2)[C@@H]1C1(C)CC1 [Compound 455, 4-((5R)-4-(((2S,3R)-1-(1H-imidazole-1-carbonyl)-2-(1-methylcyclopropyl)azetidin-3-yl)methyl)-9-chloro-11-fluoro-2-(((2R,7aS)-2-fluorotetrahydro-1H-pyrrolizin-7a(5H)-yl)methoxy)-5-methyl-4,5,6,7-tetrahydro-[1,5]oxazocino[4,3,2-de]quinazolin-10-yl)-2-amino-7-fluorobenzo [b]thiophene-3-carbonitrile]?
**A.** IC50 (KRAS G12S): < 500 nM; IC50 (KRAS WT): < 500 nM

**Q.** How did the IC50 (KRAS G12S) turn out when C[C@@H]1[C@H](N2CCCc3nc(-c4ccc(F)c5sc(N)c(C#N)c45)c(F)c4nc(OC[C@@]56CCCN5C[C@H](F)C6)nc2c34)CCN1C(=O)n1cnc(Cl)n1 [Compound 433, 2-amino-4-(10-((2R,3R)-1-(3-chloro-1H-1,2,4-triazole-1-carbonyl)-2-methylpyrrolidin-3-yl)-4-fluoro-2-(((2R,7aS)-2-fluorotetrahydro-1H-pyrrolizin-7a(5H)-yl)methoxy)-7,8,9,10-tetrahydro-1,3,6,10-tetraazacyclohepta[de]naphthalen-5-yl)-7-fluorobenzo[b]thiophene-3-carbonitrile] was run?
**A.** < 500 nM

**Q.** What about the IC50 (KRAS WT) of the same molecule?
**A.** < 500 nM

**Q.** With C/C(C#N)=C/C(=O)N1CC(CN2CCOc3c(Cl)c(-c4ccc(F)c5sc(N)c(C#N)c45)c(F)c4nc(OC[C@@]56CCCN5C[C@H](F)C6)nc2c34)C1 [Compound 459, 2-amino-4-(8-chloro-4-((1-((Z)-3-cyanobut-2-enoyl)azetidin-3-yl)methyl)-10-fluoro-2-(((2R, 7aS)-2-fluorotetrahydro-1H-pyrrolizin-7a(5H)-yl)methoxy)-5,6-dihydro-4H-[1,4]oxazepino[5,6,7-de]quinazolin-9-yl)-7-fluorobenzo [b]thiophene-3-carbonitrile] as the molecule, how does the IC50 (KRAS G12S) read?
**A.** < 500 nM

**Q.** What about the IC50 (KRAS WT) of the same molecule?
**A.** < 500 nM

**Q.** For Cc1c(C#N)ncn1C(=O)N1C[C@@H](CN2CCOc3c(Cl)c(-c4ccc(F)c5sc(N)c(C#N)c45)c(F)c4nc(OC[C@@]56CCCN5C[C@H](F)C6)nc2c34)[C@H]1C1(C)CC1 (single isomer, unassigned) [Compound 452], which IC50 (KRAS G12S) is on record?
**A.** < 500 nM

**Q.** And the IC50 (KRAS WT)?
**A.** < 500 nM

**Q.** What does the source list for COCC1([C@@H]2[C@H](CN3CCOc4c(Cl)c(-c5ccc(F)c6sc(N)c(C#N)c56)c(F)c5nc(OC[C@@]67CCCN6C[C@H](F)C7)nc3c45)CN2C(=O)n2cnc(C)c2)CC1 [Compound 477, 2-amino-4-(8-chloro-10-fluoro-2-(((2R,7aS)-2-fluorotetrahydro-1H-pyrrolizin-7a(5H)-yl)methoxy)-4-(((2S,3R)-2-(1-(methoxymethyl)cyclopropyl)-1-(4-methyl-1H-imidazole-1-carbonyl)azetidin-3-yl)methyl)-5,6-dihydro-4H-[1,4]oxazepino[5,6,7-de]quinazolin-9-yl)-7-fluorobenzo [b]thiophene-3-carbonitrile]?
**A.** IC50 (KRAS G12S): < 500 nM; IC50 (KRAS WT): < 500 nM

**Q.** For Cc1cn(C(=O)N2CC[C@@H](N3CCCCc4nc(-c5cc(N)c(F)c(C)c5C(F)(F)F)c(F)c5nc(OC[C@@]67CCCN6C[C@H](F)C7)nc3c45)[C@H]2C)c(C)n1 [Compound 438, ((2R,3R)-3-(5-(5-amino-4-fluoro-3-methyl-2-(trifluoromethyl)phenyl)-4-fluoro-2-(((2R,7aS)-2-fluorotetrahydro-1H-pyrrolizin-7a(5H)-yl)methoxy)-7,8,9,10-tetrahydro-11H-1,3,6,11-tetraazacycloocta[de]naphthalen-11-yl)-2-methylpyrrolidin-1-yl)(2,4-dimethyl-1H-imidazol-1-yl)methanone], which IC50 (KRAS G12S) is on record?
**A.** < 500 nM

**Q.** And the IC50 (KRAS WT)?
**A.** < 500 nM

**Q.** Which IC50 (KRAS G12S) does the source give for C[C@@H]1[C@H](N2CCOc3c(Cl)c(-c4ccc(F)c5sc(N)c(C#N)c45)c(F)c4nc(OC[C@@]56CCCN5C[C@H](F)C6)nc2c34)CCN1C(=O)n1ccnc1 (single isomer, unassigned) [Compound 474] here?
**A.** < 500 nM

**Q.** What about the IC50 (KRAS WT) of the same molecule?
**A.** < 500 nM

**Q.** How did the IC50 (KRAS G12S) turn out when C[C@H](O)[C@H]1COc2c(Cl)c(-c3ccc(F)c4sc(N)c(C#N)c34)c(F)c3nc(OC[C@@]45CCCN4C[C@H](F)C5)nc(c23)N1CC1CCN(C(=O)n2ccnc2)C1 (stereo partly drawn) [Compound 419, 4-((5R)-4-((1-(1H-imidazole-1-carbonyl)pyrrolidin-3-yl)methyl)-8-chloro-10-fluoro-2-(((2R,7aS)-2-fluorotetrahydro-1H-pyrrolizin-7a(5H)-yl)methoxy)-5-((S)-1-hydroxyethyl)-5,6-dihydro-4H-[1,4]oxazepino [5,6,7-de]quinazolin-9-yl)-2-amino-7-fluorobenzo[b] thiophene-3-carbonitrile] was run?
**A.** < 500 nM

**Q.** And the IC50 (KRAS WT)?
**A.** < 500 nM

**Q.** For Cc1cn(C(=O)N2CC[C@@H](N3CCCCc4nc(-c5ccc(F)c6sc(N)c(C#N)c56)c(F)c5nc(OC[C@@]67CCCN6C[C@H](F)C7)nc3c45)[C@H]2C)c(C)n1 [Compound 454, 2-amino-4-(11-((2R,3R)-1-(2,4-dimethyl-1H-imidazole-1-carbonyl)-2-methylpyrrolidin-3-yl)-4-fluoro-2-(((2R,7aS)-2-fluorotetrahydro-1H-pyrrolizin-7a (5H)-yl)methoxy)-8,9,10,11-tetrahydro-7H-1,3,6,11-tetraazacycloocta[de]naphthalen-5-yl)-7-fluorobenzo[b]thiophene-3-carbonitrile], which IC50 (KRAS G12S) is on record?
**A.** < 500 nM

**Q.** What about the IC50 (KRAS WT) of the same molecule?
**A.** < 500 nM

**Q.** With CC#CC(=O)N1C[C@@H](CN2CCOc3c(Cl)c(-c4ccc(F)c5sc(N)c(C#N)c45)c(F)c4nc(OC[C@@]56CCCN5C[C@H](F)C6)nc2c34)[C@H]1C1(C)CC1 [Compound 484, 2-amino-4-(4-(((2S,3R)-1-(but-2-ynoyl)-2-(1-methylcyclopropyl)azetidin-3-yl)methyl)-8-chloro-10-fluoro-2-(((2R,7aS)-2-fluorotetrahydro-1H-pyrrolizin-7a(5H)-yl)methoxy)-5,6-dihydro-4H-[1,4]oxazepino [5,6,7-de]quinazolin-9-yl)-7-fluorobenzo[b]thiophene-3-carbonitrile] as the molecule, how does the IC50 (KRAS G12S) read?
**A.** < 500 nM

**Q.** What about the IC50 (KRAS WT) of the same molecule?
**A.** < 500 nM

**Q.** Which results are given for C=CC(=O)N1CC[C@@H](N2CCCOc3c(Cl)c(-c4ccc(F)c5sc(N)c(C#N)c45)c(F)c4nc(OC[C@@]56CCCN5C[C@H](F)C6)nc2c34)[C@H]1C [Compound 411, 4-(4-((2R,3R)-1-acryloyl-2-methylpyrrolidin-3-yl)-9-chloro-11-fluoro-2-(((2R,7aS)-2-fluorotetrahydro-1H-pyrrolizin-7a (5H)-yl)methoxy)-4,5,6,7-tetrahydro-[1,5]oxazocino-[4,3,2-de]quinazolin-10-yl)-2-amino-7-fluorobenzo[b]thiophene-3-carbonitrile]?
**A.** IC50 (KRAS G12S): < 500 nM; IC50 (KRAS WT): < 500 nM

**Q.** With CC(C)[C@@H]1[C@H](CN2CCOc3c(Cl)c(-c4ccc(F)c5sc(N)c(C#N)c45)c(F)c4nc(OC[C@@]56CCCN5C[C@H](F)C6)nc2c34)CN1C(=O)n1cnc(F)n1 (single isomer, unassigned) [Compound 408] as the molecule, how does the IC50 (KRAS G12S) read?
**A.** < 500 nM

**Q.** What about the IC50 (KRAS WT) of the same molecule?
**A.** < 500 nM
